The NIST ThermoML archive (doi:10.1016/j.jct.2019.03.007)
Values joined by “and” are separate entries in the source; they are usually repeats but may differ in a detail not shown here. Identical values can stand only once. Numbers after ± are expanded uncertainties.

Conditions: for molar volume: 100 kPa, X-ray diffraction; for Triple point temperature: DSC

O=[N+]([O-])[O-].O=[N+]([O-])[O-].[Ca+2] [calcium nitrate]
Crystal 1
Conditions | molar volume
298 K | 6.616e-05 ± 5.4e-08 m3/mol and 6.614e-05 ± 5.4e-08 m3/mol
323 K | 6.637e-05 ± 5.4e-08 m3/mol and 6.638e-05 ± 5.4e-08 m3/mol
348 K | 6.658e-05 ± 5.4e-08 m3/mol
373 K | 6.68e-05 ± 5.4e-08 m3/mol
398 K | 6.702e-05 ± 5.4e-08 m3/mol and 6.703e-05 ± 5.4e-08 m3/mol
423 K | 6.725e-05 ± 5.4e-08 m3/mol and 6.726e-05 ± 5.4e-08 m3/mol
448 K | 6.748e-05 ± 5.4e-08 m3/mol and 6.749e-05 ± 5.4e-08 m3/mol
473 K | 6.771e-05 ± 5.4e-08 m3/mol and 6.773e-05 ± 5.4e-08 m3/mol
498 K | 6.794e-05 ± 5.5e-08 m3/mol and 6.797e-05 ± 5.5e-08 m3/mol
523 K | 6.818e-05 ± 5.5e-08 m3/mol and 6.821e-05 ± 5.5e-08 m3/mol
548 K | 6.845e-05 ± 5.5e-08 m3/mol and 6.842e-05 ± 5.5e-08 m3/mol
573 K | 6.871e-05 ± 5.5e-08 m3/mol and 6.866e-05 ± 5.5e-08 m3/mol
598 K | 6.9e-05 ± 5.5e-08 m3/mol and 6.89e-05 ± 5.5e-08 m3/mol
623 K | 6.92e-05 ± 5.5e-08 m3/mol and 6.915e-05 ± 5.5e-08 m3/mol
648 K | 6.945e-05 ± 5.6e-08 m3/mol and 6.94e-05 ± 5.5e-08 m3/mol
673 K | 6.97e-05 ± 5.6e-08 m3/mol and 6.967e-05 ± 5.6e-08 m3/mol
698 K | 6.994e-05 ± 5.6e-08 m3/mol and 6.992e-05 ± 5.6e-08 m3/mol
723 K | 7.019e-05 ± 5.6e-08 m3/mol

Conditions | Triple point temperature [K]
Crystal 1 | 823 ± 4
Crystal 2 | 290 ± 4
